Holding throughout (assay): growth of human tumour cells (NCI), 48 h
The subject of test [1] is 786-0 renal.
For test [2], the system named is A549 NSCLC.
For test [3], the system named is CCRF-CEM leukemia.
In test [4] the test system is COLO 205 colon.
Test [5] has as its system DU-145 prostate.
The test system of test [6] is HCT-116 colon.
In test [7] the test system is HOP-62 NSCLC.
For test [8], the system named is HT29 colon.
Test [9] deals with NCI/ADR-RES ovarian.
Test [10] has as its system SF-268 CNS.
Test [11] has as its system SF-539 CNS.
Test [12] has as its system U251 CNS.
For test [13], the system named is SK-MEL-2 melanoma.
Test [14] deals with UACC-62 melanoma.
In test [15] the test system is T-47D breast.

“And” between values parts separate entries of the source, which are not always exact repeats. Equal values may be shown once.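 Exposure lasted 48 hours, with cells grown in 96-well plates and compounds tested at five concentrations. GI50 marks 50% less growth. TGI: concentration producing complete growth inhibition.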

As for `O=C(NCc1ccccc1Cl)c1c(O)c2ccccc2[nH]c1=O`, the TGI in [1] was 36.5 µM; in test [2], > 100 µM; in [3], > 100 µM; in test [4] it was > 100 µM; in [5], > 100 µM; in test [6], > 100 µM. Also, the TGI in [7] was 41 µM; in [8] it was > 100 µM; in test [9], 56.6 µM; in test [10], > 100 µM; in test [11], > 100 µM; in test [12] it was 40.7 µM.

Consider `C[n+]1c(-c2ccc(/C=N/NC(=O)C(=O)N/N=C/c3ccc(-c4cn5ccccc5[n+]4C)cc3)cc2)cn2ccccc21`, for which the TGI in test [1], in test [2], in test [3], in test [4], in test [5] and in [7] was > 100 µM in each case. Moreover, the TGI in test [8], in test [9], in test [11], in test [13], in [12] and in [14] was > 100 µM in each case.

On to `COC1OC(C(=O)O)C2OC(C)(C)OC12` (stereo not drawn), for which the TGI in test [1], in test [2], in [3], in test [4], in [5] and in test [6] was > 100 µM in each case. Besides, the TGI in test [7], in test [8], in test [9], in test [10], in [11] and in [13] was > 100 µM each time. The TGI in [12] and in test [14] was > 100 µM in each case.

Turning to `CC(C)=CCCC1(C)C2COC(=O)C21` (stereo not drawn), the TGI in test [1] is > 100 µM; in test [3] it was > 100 µM and 52.6 µM; in test [4], > 100 µM; in test [5], > 100 µM; in test [6], > 100 µM and 35.4 µM; in test [7], > 100 µM and 75.4 µM. In addition, the TGI in [8], in test [10], in test [13], in test [12] and in [14] was > 100 µM throughout. The GI50 in [3] was 39.3 µM and 12.3 µM; in [4], > 100 µM and 34.2 µM; in [6], > 100 µM and 19.8 µM; in test [7], > 100 µM and 27.6 µM; in test [12], > 100 µM and 43.5 µM.

On to `CC1(Cl)CC(C)(/C=C/Cl)C(Cl)CC1Cl` (stereo not drawn), for which the TGI came out at 29.1 µM in [1]; 31.1 µM in [2]; 59 µM in [3]; 30 µM in [6]; 34.7 µM in test [7]; 27.3 µM in test [8]. Further, the TGI came out at 31.1 µM in test [10]; 34.4 µM in test [11]; 26.3 µM in test [13]; 30.8 µM in test [12]; 34.1 µM in test [14].

In the case of `COc1cc(/C=C2/Oc3c(OC)cccc3C2=O)ccc1O`, the TGI in test [1], in test [2], in [3], in test [4], in [5] and in test [6] was > 100 µM throughout. The TGI in test [7], in test [8], in test [10], in test [13], in test [12] and in [14] was > 100 µM throughout.

In the case of `CC(=O)[C@]1(O)Cc2c(O)c3c(c(O)c2[C@@H](OC2CC(N)C(O)C(C)O2)C1)C(=O)c1c(OCc2ccccc2)cccc1C3=O` (stereo partly drawn), the TGI in test [1] was found to be 2.16 µM; in test [2] it was 6.93 µM; in test [3], 1.45 µM; in test [5] it was 3.4 µM; in [6], 1.79 µM; in test [7] it was 16 µM. Also, the TGI worked out at 14.7 µM in test [8]; 11.7 µM in test [10]; 7.45 µM in test [11]; 58.4 µM in test [13]; 8.11 µM in test [15]; 3.97 µM in test [12]. In test [14], this compound gave a TGI of 5.63 µM.

Regarding `Cn1c(NC(=O)NC23CC4CC(CC(C4)C2)C3)nc2ccccc21`, the TGI was 81.5 µM in test [1]; > 100 µM in [2]; > 100 µM in [4]; > 100 µM in test [6]; > 100 µM in [7]; > 100 µM in test [8]. In addition, the TGI in test [10], in test [11], in test [13], in [12] and in test [14] was > 100 µM in each case.

With `S=c1[nH]nc(CCCCCCCCc2n[nH]c(=S)o2)o1`, the TGI in test [1], in test [2], in test [3], in test [4], in test [5] and in test [6] was > 100 µM in each case. Further, the TGI in test [7], in test [8], in test [9], in test [10], in test [11] and in test [13] was > 100 µM throughout. In addition, in test [12], the TGI is > 100 µM.

Take `Cc1cc2c(cc1Cl)Sc1n[nH]c(=O)n1S2(=O)=O`: the TGI in [1], in test [2], in [3], in test [4], in test [5] and in test [6] was > 100 µM in each case. Besides, the TGI in test [7], in [8], in [9], in test [10], in [11] and in test [12] was > 100 µM throughout. Besides, the TGI in [14] is > 100 µM.

In the case of `c1ccc(Nc2nnc(CCCCCCCCc3nnc(Nc4ccccc4)o3)o2)cc1`, the TGI in test [1], in [2], in test [3], in test [4], in test [5] and in test [6] was > 100 µM throughout. The TGI in test [7], in test [8], in [9], in [10], in test [11] and in test [13] was > 100 µM each time. Further, in test [12], the TGI is > 100 µM.

For `O=C(O)/C=C/c1ccncc1`, the TGI in test [1] was > 100 µM; in test [3], > 100 µM; in test [4], > 100 µM; in [6], > 100 µM; in [7], 0.746 µM; in test [8], > 100 µM. In addition, the TGI in test [10] is > 100 µM; in test [11], > 100 µM; in [13], > 100 µM; in test [12], 14 µM; in [14], > 100 µM.

Consider `Cc1ccc(NC(=O)C(=O)Cc2cccc[n+]2[O-])cc1C`, for which the TGI in test [1], in test [2], in test [3], in [4], in test [6] and in test [7] was > 100 µM throughout. Moreover, the TGI in test [8], in [10], in [11], in [13], in [12] and in test [14] was > 100 µM each time.

On to `Cc1nc(Cc2n[nH]c(C)n2)n[nH]1`, for which the TGI in test [1], in [2], in [3], in test [4], in test [5] and in [6] was > 100 µM each time. The TGI in test [7], in test [8], in test [9], in test [10], in test [11] and in test [13] was > 100 µM throughout. In addition, the TGI in [12] and in [14] was > 100 µM in each case.

In the case of `CC(C)=CC(=O)c1c(C(=O)O)nc2ccccc2[n+]1[O-]`, the TGI in [1], in test [2], in [3], in [4], in [6] and in test [7] was > 100 µM each time. Also, the TGI in test [8], in test [10], in test [11], in test [13], in [12] and in test [14] was > 100 µM each time.

For the compound `C(=C\c1c2oc(-c3ccccc3)cc(-c3ccccc3)c-2c2ccccc12)/C=C1\c2ccccc2-c2c(-c3ccccc3)cc(-c3ccccc3)[o+]c21`, the TGI in test [1], in test [2], in [3], in test [4], in test [6] and in test [7] was > 100 µM throughout. The TGI in test [8], in [10], in [11], in test [13], in test [12] and in test [14] was > 100 µM each time.

Regarding `O=C(c1ccccc1)c1cc(Cl)ccc1NCn1nnc2ccccc21`, the TGI in [1], in test [2], in test [3], in test [4], in [7] and in test [8] was > 100 µM in each case. The TGI in test [11], in [13], in [12] and in test [14] was > 100 µM each time.

Consider `CCOC(=O)c1c(-c2ccccc2)c(C)cn1C`, for which the TGI in test [1], in test [2], in [3], in [5], in [6] and in test [8] was > 10 µM in each case. Further, the TGI in [9], in test [10], in test [11], in test [13], in test [12] and in test [14] was > 10 µM throughout.

On to `N#Cc1c(N)nc(Sc2ccccc2N)c(C#N)c1-c1ccccc1`, for which the TGI in test [1] was 63.3 µM; in test [2], > 100 µM; in test [4] it was > 100 µM; in test [5] it was 52.3 µM; in [6], > 100 µM; in test [7], > 100 µM. For the same compound, the TGI in [8] was > 100 µM; in test [9], 42.5 µM; in test [10], 75.3 µM; in [11] it was 80.1 µM; in test [13], 32.5 µM; in test [12] it was 60.2 µM. In [14], the TGI turned out to be 26.6 µM.

Consider `Cc1ccc(-n2cc(-c3ccc(Cl)cc3)c3c(=N)n(N)cnc32)cc1`, for which the TGI is 24.4 µM in test [1]; 29 µM in [2]; 51.4 µM in test [3]; 20.7 µM in [4]; 34.5 µM in test [5]; 20.3 µM in [6]. Besides, the TGI came out at 27.4 µM in test [7]; 20.6 µM in [8]; 26.8 µM in test [9]; 25.7 µM in [10]; 27 µM in [11]; 26.8 µM in test [13]. Also, the TGI in test [12] amounted to 22.3 µM; in test [14], 26.4 µM.

As for `C=CCN1C(=O)CC(=O)N(NC2=NNC3(C(=O)N2)c2ccccc2-c2ccccc23)C1=S`, the TGI in test [1] was > 100 µM; in [2], > 100 µM; in [3], > 100 µM; in [4] it was 45 µM; in test [5], > 100 µM; in [6], > 100 µM. Moreover, the TGI in test [7] is > 100 µM; in [8], > 100 µM; in [9] it was > 100 µM; in [10], > 100 µM; in test [11], > 100 µM; in test [13] it was 74.5 µM. Further, the TGI in test [12] and in test [14] was > 100 µM throughout.

For `NC(N)=NCCCC(NC(=O)c1c2ccccc2nc2ccccc12)C(=O)O` (stereo not drawn), the TGI in test [1], in [2], in [3], in test [4], in test [5] and in test [6] was > 100 µM each time. Moreover, the TGI in [7], in test [8], in test [9], in [10], in [11] and in test [13] was > 100 µM throughout. The TGI in test [12] and in test [14] was > 100 µM in each case.
